Like-named read-outs stand apart in the source and are kept apart here.
Columns and labels:
[1] = tested on: JeKo-1 cells; experiment: Antiproliferative effect, MTS cell viability assay, JeKo-1 cells; format: cell-based; settings: Homo sapiens; JeKo-1 mantle cell lymphoma cells; read-out: IC50 (anti-proliferation) JeKO-1 cells
How it was run: (§1)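 Readout was MTS-derived formazan absorbance (490 nm) reflecting metabolically active cells. Treatment lasted 72 h over a 0–10 μM range (0.001, 0.01, 0.1, 1, 10 μM) in JeKo-1 and Mino B-cell malignancy cells.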

[2] = tested on: Mino cells; experiment: Antiproliferative effect, MTS cell viability assay, Mino cells; format: cell-based; settings: Homo sapiens, Mino mantle cell lymphoma cells, read-out: IC50 (anti-proliferation) Mino cells
How it was run: as §1

[3] = biological target: BTK (Homo sapiens, UniProt Q06187); experiment: Degradation of BTK protein in Namalwa cells (Western blot; DC50, Dmax); settings: for DC50: cell line not given
Sequence of BTK (Q06187 whole entry): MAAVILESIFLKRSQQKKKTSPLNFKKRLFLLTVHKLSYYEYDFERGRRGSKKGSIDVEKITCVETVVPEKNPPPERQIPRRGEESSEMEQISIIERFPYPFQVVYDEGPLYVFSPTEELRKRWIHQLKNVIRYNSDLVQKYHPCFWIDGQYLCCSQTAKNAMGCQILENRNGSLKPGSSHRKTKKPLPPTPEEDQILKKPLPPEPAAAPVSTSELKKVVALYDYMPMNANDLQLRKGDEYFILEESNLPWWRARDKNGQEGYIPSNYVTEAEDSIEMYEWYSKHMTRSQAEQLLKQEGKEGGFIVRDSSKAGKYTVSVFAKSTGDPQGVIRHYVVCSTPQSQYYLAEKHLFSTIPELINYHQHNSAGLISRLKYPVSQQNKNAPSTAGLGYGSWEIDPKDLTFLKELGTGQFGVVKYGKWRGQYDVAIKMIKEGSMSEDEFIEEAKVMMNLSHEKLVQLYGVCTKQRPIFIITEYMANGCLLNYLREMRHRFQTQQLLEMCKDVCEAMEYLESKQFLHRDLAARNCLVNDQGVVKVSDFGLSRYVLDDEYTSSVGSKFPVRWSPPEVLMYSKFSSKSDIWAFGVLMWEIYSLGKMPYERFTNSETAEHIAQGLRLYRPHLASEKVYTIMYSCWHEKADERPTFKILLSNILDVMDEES

[4] = read-out: DC50 (BTK degradation), concentration giving 50% reduction of BTK expression level
[5] = read-out: Dmax (BTK degradation)

| Dmax [3, 5] | Dmax [3] | DC50 ([3]; BTK degradation) | degradation of BTK protein ([3]; Namalwa B lymphocyte cells, various concentrations, 24 hours, Western blot) | Compound | IC50 [1] | IC50 ([2]; MINO) | DC50 [3, 4] | IC50 [2] |
| --- | --- | --- | --- | --- | --- | --- | --- | --- |
| > 90% | – | – | – | Nc1ncnc2c1c(-c1ccc(Oc3ccccc3)cc1)nn2C1CCN(CCCN2CCC(CN3CCN(c4ccc(NC5CCC(=O)NC5=O)cc4)CC3)CC2)CC1 (centres unmarked) [Compound 560, 3-((4-(4-((1-(3-(4-(4-amino-3-(4-phenoxyphenyl)-1H-pyrazolo[3,4-d]pyrimidin-1-yl)piperidin-1-yl)propyl)piperidin-4-yl)methyl)piperazin-1-yl)phenyl)amino)piperidine-2,6-dione] | < 1000 nM | < 1000 nM | < 10 nM | – |
| > 90% | – | – | – | Nc1ncnc2c1c(-c1ccc(Oc3ccccc3)cc1)nn2C1CCC(C(=O)N2CC(C3CCN(c4ccc5c(c4)C(=O)N(C4CCC(=O)NC4=O)C5=O)CC3)C2)CC1 (centres unmarked) [Compound 513, 5-(4-(1-(4-(4-amino-3-(4-phenoxyphenyl)-1H-pyrazolo[3,4-d]pyrimidin-1-yl)cyclohexane-1-carbonyl)azetidin-3-yl)piperidin-1-yl)-2-(2,6-dioxopiperidin-3-yl)isoindoline-1,3-dione] | < 1000 nM | < 1000 nM | < 10 nM | – |
| < 50% | – | – | dose-dependent degradation | Nc1ncnc2c1c(-c1ccc(Oc3ccccc3)cc1)nn2C1CCN(CC2CN(CC3CN(c4ccc5c(c4)C(=O)N(C4CCC(=O)NC4=O)C5=O)C3)C2)CC1 (centres unmarked) [Compound 441, 5-(3-((3-((4-(4-amino-3-(4-phenoxyphenyl)-1H-pyrazolo(3,4-d)pyrimidin-1-yl)piperidin-1-yl)methyl)azetidin-1-yl)methyl)azetidin-1-yl)-2-(2,6-dioxopiperidin-3-yl)isoindoline-1,3-dione] | > 10000 nM | > 10000 nM | – | – |
| – | > 90% | 10 to 50 nM | – | NC(=O)c1c(-c2ccc(Oc3ccccc3)cc2)nn2c1NCC[C@H]2C1CCN(C2CCN(C(=O)N3CCC(CN4CCN(c5ccc6c(c5)CN(C5CCC(=O)NC5=O)C6=O)CC4)CC3)CC2)CC1 (stereo partly drawn) [Compound 390, (7S)-7-(1′-(4-((4-(2-(2,6-dioxopiperidin-3-yl)-1-oxoisoindolin-5-yl)piperazin-1-yl)methyl)piperidine-1-carbonyl)-[1,4′-bipiperidin]-4-yl)-2-(4-phenoxyphenyl)-4,5,6,7-tetrahydropyrazolo[1,5-a]pyrimidine-3-carboxamide] | > 10000 nM | 1000 to 10000 nM | – | – |
| > 90% | – | – | – | Nc1ncnc2c1c(-c1ccc(Oc3ccccc3)cc1)nn2[C@@H]1CCCN(C2CCN(C(=O)N3CC(N4CCN(c5ccc6c(c5)C(=O)N(C5CCC(=O)NC5=O)C6=O)CC4)C3)CC2)C1 (stereo partly drawn) [Compound 475, 5-(4-(1-((R)-3-(4-amino-3-(4-phenoxyphenyl)-1H-pyrazolo[3,4-d]pyrimidin-1-yl)-[1,4′-bipiperidine]-1′-carbonyl)azetidin-3-yl)piperazin-1-yl)-2-(2,6-dioxopiperidin-3-yl)isoindoline-1,3-dione] | 1000 to 10000 nM | < 1000 nM | < 10 nM | – |
| – | > 90% | 10 to 50 nM | – | NC(=O)c1c(-c2ccc(Oc3ccccc3)cc2)nn2c1NCC[C@H]2C1CCN(C2CCN(C(=O)N3CCN(CC4CCN(c5ccc6c(c5)CN(C5CCC(=O)NC5=O)C6=O)CC4)CC3)CC2)CC1 (stereo partly drawn) [Compound 392, (7S)-7-(1′-(4-((1-(2-(2,6-dioxopiperidin-3-yl)-1-oxoisoindolin-5-yl)piperidin-4-yl)methyl)piperazine-1-carbonyl)-[1,4′-bipiperidin]-4-yl)-2-(4-phenoxyphenyl)-4,5,6,7-tetrahydropyrazolo[1,5-a]pyrimidine-3-carboxamide] | 1000 to 10000 nM | < 1000 nM | – | – |

More lines, now with the values behind:

| Compound | Dmax [3, 5] | Dmax [3] | DC50 ([3]; BTK degradation) | degradation of BTK protein ([3]; Namalwa B lymphocyte cells, various concentrations, 24 hours, Western blot) | IC50 [1] | IC50 ([2]; MINO) | DC50 [3, 4] | IC50 [2] |
| --- | --- | --- | --- | --- | --- | --- | --- | --- |
| Nc1ncnc2c1c(-c1ccc(Oc3ccccc3)cc1)nn2[C@@H]1CCCN(C2CCN(C(=O)N3CCC(CCCN4CCC(c5ccc6c(c5)C(=O)N(C5CCC(=O)NC5=O)C6=O)CC4)CC3)CC2)C1 (stereo partly drawn) [Compound 197, 5-(1-(3-(1-((R)-3-(4-amino-3-(4-phenoxyphenyl)-1H-pyrazolo[3,4-d]pyrimidin-1-yl)-[1,4′-bipiperidine]-1′-carbonyl)piperidin-4-yl)propyl)piperidin-4-yl)-2-(2,6-dioxopiperidin-3-yl)isoindoline-1,3-dione] | – | > 75% | 10 to 50 nM | – | > 10000 nM | 1000 to 10000 nM | – | – |
| Nc1ncnc2c1c(-c1ccc(Oc3ccccc3)cc1)nn2C1CCN(C2CCN(C(=O)N3CCN(CC4CCN(c5ccc6c(c5)CN(C5CCC(=O)NC5=O)C6=O)CC4)CC3)CC2)CC1 (centres unmarked) [Compound 242, 3-(5-(4-((4-(4-(4-amino-3-(4-phenoxyphenyl)-1H-pyrazolo[3,4-d]pyrimidin-1-yl)-[1,4′-bipiperidine]-1′-carbonyl)piperazin-1-yl)methyl)piperidin-1-yl)-1-oxoisoindolin-2-yl)piperidine-2,6-dione] | – | > 90% | < 10 nM | – | 1000 to 10000 nM | < 1000 nM | – | – |
| Nc1ncnc2c1c(-c1ccc(Oc3ccccc3)cc1)nn2C1CCN(CCN2CCC(CN3CCN(c4ccc5c(c4)C(=O)N(C4CCC(=O)NC4=O)C5=O)CC3)C2)CC1 (centres unmarked) [Compound 455, 5-(4-((1-(2-(4-(4-amino-3-(4-phenoxyphenyl)-1H-pyrazolo(3,4-d)pyrimidin-1-yl)piperidin-1-yl)ethyl)pyrrolidin-3-yl)methyl)piperazin-1-yl)-2-(2,6-dioxopiperidin-3-yl)isoindoline-1,3-dione] | > 90% | – | – | – | < 1000 nM | – | < 10 nM | < 1000 nM |
| NC(=O)c1c(-c2ccc(Oc3ccccc3)cc2)nn2c1NCCC2C1CCN(C(=O)N2CCN(CCN3CCC(c4ccc5c(c4)C(=O)N(C4CCC(=O)NC4=O)C5=O)CC3)CC2)CC1 (centres unmarked) [Compound 287] | – | > 75% | 10 to 50 nM | – | > 10000 nM | 1000 to 10000 nM | – | – |
| NC(=O)c1c(-c2ccc(Oc3ccccc3)cc2)nn2c1NCC[C@H]2C1CCN(CC2CCN(CC3CCN(c4ccc5c(c4)CN(C4CCC(=O)NC4=O)C5=O)CC3)CC2)CC1 (stereo partly drawn) [Compound 330, (7S)-7-(1-((1-((1-(2-(2,6-dioxopiperidin-3-yl)-1-oxoisoindolin-5-yl)piperidin-4-yl)methyl)piperidin-4-yl)methyl)piperidin-4-yl)-2-(4-phenoxyphenyl)-4,5,6,7-tetrahydropyrazolo[1,5-a]pyrimidine-3-carboxamide] | – | > 75% | 10 to 50 nM | – | 1000 to 10000 nM | 1000 to 10000 nM | – | – |
| NC(=O)c1c(-c2ccc(Oc3ccccc3)cc2)nn2c1NCC[C@H]2C1CCN(CC2CCN(CCN3CCC(c4ccc5c(c4)CN(C4CCC(=O)NC4=O)C5=O)CC3)CC2)CC1 (stereo partly drawn) [Compound 336, (7S)-7-(1-((1-(2-(4-(2-(2,6-dioxopiperidin-3-yl)-1-oxoisoindolin-5-yl)piperidin-1-yl)ethyl)piperidin-4-yl)methyl)piperidin-4-yl)-2-(4-phenoxyphenyl)-4,5,6,7-tetrahydropyrazolo[1,5-a]pyrimidine-3-carboxamide] | – | > 75% | 10 to 50 nM | – | 1000 to 10000 nM | 1000 to 10000 nM | – | – |
| Nc1ncnc2c1c(-c1ccc(Oc3ccccc3)cc1)nn2C1CCN(CCN2CCC(N3CCN(c4ccc5c(c4)C(=O)N(C4CCC(=O)NC4=O)C5=O)CC3)C2)CC1 (centres unmarked) [Compound 459, 5-(4-(1-(2-(4-(4-amino-3-(4-phenoxyphenyl)-1H-pyrazolo(3,4-d)pyrimidin-1-yl)piperidin-1-yl)ethyl)pyrrolidin-3-yl)piperazin-1-yl)-2-(2,6-dioxopiperidin-3-yl)isoindoline-1,3-dione] | > 90% | – | – | – | < 1000 nM | – | < 10 nM | < 1000 nM |
| Nc1ncnc2c1c(-c1ccc(Oc3ccccc3)cc1)nn2C1CCN(C2CCN(C(=O)N3CCC(CN4CCC(c5ccc6c(c5)CN(C5CCC(=O)NC5=O)C6=O)CC4)CC3)CC2)CC1 (centres unmarked) [Compound 244, 3-(5-(1-((1-(4-(4-amino-3-(4-phenoxyphenyl)-1H-pyrazolo[3,4-d]pyrimidin-1-yl)-[1,4′-bipiperidine]-1′-carbonyl)piperidin-4-yl)methyl)piperidin-4-yl)-1-oxoisoindolin-2-yl)piperidine-2,6-dione] | – | > 90% | < 10 nM | – | 1000 to 10000 nM | 1000 to 10000 nM | – | – |
| Nc1ncnc2c1c(-c1ccc(Oc3ccccc3)cc1)nn2C1CCN(CCN2CCC(CN3CCN(c4ccc5c(c4)C(=O)N(C4CCC(=O)NC4=O)C5=O)CC3)CC2)CC1 (centres unmarked) [Compound 453, 5-(4-((1-(2-(4-(4-amino-3-(4-phenoxyphenyl)-1H-pyrazolo(3,4-d)pyrimidin-1-yl)piperidin-1-yl)ethyl)piperidin-4-yl)methyl)piperazin-1-yl)-2-(2,6-dioxopiperidin-3-yl)isoindoline-1,3-dione] | > 90% | – | – | – | 1000 to 10000 nM | – | 10 to 50 nM | 1000 to 10000 nM |
| NC(=O)c1c(-c2ccc(Oc3ccccc3)cc2)nn2c1NCCC2C1CCN(C2CCN(C(=O)N3CCN(C4CCN(c5ccc6c(c5)C(=O)N(C5CCC(=O)NC5=O)C6=O)CC4)CC3)CC2)CC1 (centres unmarked) [Compound 345, 7-(1′-(4-(1-(2-(2,6-dioxopiperidin-3-yl)-1,3-dioxoisoindolin-5-yl)piperidin-4-yl)piperazine-1-carbonyl)-[1,4′-bipiperidin]-4-yl)-2-(4-phenoxyphenyl)-4,5,6,7-tetrahydropyrazolo[1,5-a]pyrimidine-3-carboxamide] | – | > 90% | < 10 nM | – | 1000 to 10000 nM | 1000 to 10000 nM | – | – |
| NC(=O)c1c(-c2ccc(Oc3ccccc3)cc2)nn2c1NCCC2C1CCN(CCOCCOCCN2CCN(c3ccc4c(c3)CN(C3CCC(=O)NC3=O)C4=O)CC2)CC1 (centres unmarked) [Compound 270, 7-(1-(2-(2-(2-(4-(2-(2,6-dioxopiperidin-3-yl)-1-oxoisoindolin-5-yl)piperazin-1-yl)ethoxy)ethoxy)ethyl)piperidin-4-yl)-2-(4-phenoxyphenyl)-4,5,6,7-tetrahydropyrazolo[1,5-a]pyrimidine-3-carboxamide] | – | > 90% | 10 to 50 nM | – | > 10000 nM | 1000 to 10000 nM | – | – |

Source: patent US12139492B2 (Endotarget Inc., priority 2021, dated 2024)
